# *1 amine or outer side, *2 acyl side, *3 side chain or, on linkers, in order; H or OH if unused. Where a SMILES comes first, the peptide text is derived from it. Where no end group is shown, it is not given here. [ ]: non-standard residue; d: D form. X8 = O=C(CSC[C@H](Cc1ccccc1)N[*:1])[*:2]; 2Nal = N[C@@H](Cc1ccc2ccccc2c1)C(=O)O; X1 = CC(C)C[C@H](CCCN[*:1])C(=O)[*:2]; Arg(Me) = CNC(=N)NCCC[C@H](N)C(=O)O; Dap(CONH2) = NC(=O)NC[C@H](N)C(=O)O; Ala(cPr) = N[C@@H](CC1CC1)C(=O)O; Hyp = O=C(O)[C@@H]1C[C@@H](O)CN1; tBuAla = CC(C)(C)C[C@H](N)C(=O)O; Cha = N[C@@H](CC1CCCCC1)C(=O)O; Cba = N[C@@H](CC1CCC1)C(=O)O; Nle = CCCC[C@H](N)C(=O)O; Dap = NC[C@H](N)C(=O)O
# Test system: metastin receptors
# Test: Measurement of agonist activity by assaying changes in intracellular calcium ion level (FLIPR, Fluo-4 NW)
# Format: cell-based, human
# Settings: specific activity of the EC50 of a test compound based on the EC50 of Metastin (45-54), metastin receptor expression CHO cells
# In short: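 CHO/dhfr⁻ cells stably expressing human or rat metastin receptor, seeded 3×10^4/well for 24 h, loaded with Fluo-4 NW 30 min at 37 °C in HBSS with 0.1% BSA, 20 mM HEPES pH 7.4 and 1 mM probenecid. Compound-stimulated intracellular calcium change read on FLIPR.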
row,Compound,Specific Activity
1,"CCCC[C@H](NC(=O)CNC(=O)[C@H](CC1CCCCC1)NC(=O)[C@@H](NC(=O)[C@H](CC(N)=O)NC(=O)[C@@H]1C[C@@H](O)CN1C(=O)[C@@H](Cc1ccc(O)cc1)NC(C)=O)[C@@H](C)O)C(=O)N[C@@H](CCCNC(=N)NC)C(=O)N[C@@H](Cc1c[nH]c2ccccc12)C(N)=O [Compound No. 932, des(1)-Ac-[D-Tyr2,Hyp3,Thr5,Cha6,Nle8,Arg(Me)9,Trp10]MS10] (Ac-[dY][Hyp]NT[Cha]G[Nle][Arg(Me)]W-NH2)",0.6
2,"CNC(=N)NCCC[C@H](NC(=O)[C@H](CC(C)(C)C)NC(=O)CNC(=O)[C@H](CC1CCCCC1)NC(=O)[C@@H](NC(=O)[C@H](CC(N)=O)NC(=O)[C@@H]1C[C@@H](O)CN1C(=O)[C@@H](Cc1ccc(O)cc1)NC(C)=O)[C@@H](C)O)C(=O)N[C@@H](Cc1c[nH]c2ccccc12)C(N)=O [Compound No. 933, des(1)-Ac-[D-Tyr2,Hyp3,Thr5,Cha6,Leu(Me)8,Arg(Me)9,Trp10]MS10] (Ac-[dY][Hyp]NT[Cha]G[tBuAla][Arg(Me)]W-NH2)",1.4
3,"CNC(=N)NCCC[C@H](NC(=O)[C@H](CC1CCCCC1)NC(=O)CNC(=O)[C@H](CC1CCCCC1)NC(=O)[C@@H](NC(=O)[C@H](CC(N)=O)NC(=O)[C@@H]1C[C@@H](O)CN1C(=O)[C@@H](Cc1ccc(O)cc1)NC(C)=O)[C@@H](C)O)C(=O)N[C@@H](Cc1c[nH]c2ccccc12)C(N)=O [Compound No. 934, des(1)-Ac-[D-Tyr2,Hyp3,Thr5,Cha6,8,Arg(Me)9,Trp10]MS10] (Ac-[dY][Hyp]NT[Cha]G[Cha][Arg(Me)]W-NH2)",3.5
4,"CC(=O)N[C@H](Cc1ccc(O)cc1)C(=O)N1C[C@H](O)C[C@H]1C(=O)N[C@@H](CC(N)=O)C(=O)N[C@H](C(=O)N[C@@H](CC1CCCCC1)C(=O)NCC(=O)N[C@@H](CC1CC1)C(=O)N[C@@H](CCCNC(=N)N)C(=O)N[C@@H](Cc1c[nH]c2ccccc12)C(N)=O)[C@@H](C)O [Compound No. 940, des(1)-Ac-[D-Tyr2,Hyp3,Thr5,Cha6,Ala(cPr)8,Trp10]MS10] (Ac-[dY][Hyp]NT[Cha]G[Ala(cPr)]RW-NH2)",0.5
5,"CC(=O)N[C@H](Cc1ccc(O)cc1)C(=O)N[C@@H](CCC(=O)O)C(=O)N[C@@H](CC(N)=O)C(=O)N[C@H](C(=O)N[C@@H](CC1CCCCC1)C(=O)NCC(=O)N[C@@H](CC1CC1)C(=O)N[C@@H](CCCNC(=N)N)C(=O)N[C@@H](Cc1c[nH]c2ccccc12)C(N)=O)[C@@H](C)O [Compound No. 942, des(1)-Ac-[D-Tyr2,Glu3,Thr5,Cha6,Ala(cPr)8,Trp10]MS10] (Ac-[dY]ENT[Cha]G[Ala(cPr)]RW-NH2)",0.4
6,"CNC(=N)NCCC[C@H](NC(=O)[C@H](CC(C)C)NC(=O)CSC[C@H](Cc1ccccc1)NC(=O)[C@@H](NC(=O)[C@H](CC(N)=O)NC(=O)[C@@H]1C[C@@H](O)CN1C(=O)[C@@H](Cc1ccc(O)cc1)NC(C)=O)[C@@H](C)O)C(=O)N[C@@H](Cc1c[nH]c2ccccc12)C(N)=O [Compound No. 944, des(1)-Ac-[D-Tyr2,Hyp3,Thr5,Phe6Ψ(CH2S)Gly7,Arg(Me)9,Trp10]MS10] (Ac-[dY][Hyp]NT[X8]L[Arg(Me)]W-NH2)",0.7
7,"des(1)-Ac-[D-Tyr2,Hyp3,Alb4,Ala5,Cha6,Ala(cPr)8,Arg(Me)9,Trp10]MS10 (Ac-[dY][Hyp][Dap(CONH2)]A[Cha]G[Ala(cPr)][Arg(Me)]W-NH2; SMILES CNC(=N)NCCC[C@H](NC(=O)[C@H](CC1CC1)NC(=O)CNC(=O)[C@H](CC1CCCCC1)NC(=O)[C@H](C)NC(=O)[C@H](CNC(N)=O)NC(=O)[C@@H]1C[C@@H](O)CN1C(=O)[C@@H](Cc1ccc(O)cc1)NC(C)=O)C(=O)N[C@@H](Cc1c[nH]c2ccccc12)C(N)=O) [Compound No. 947]",0.5
8,"des(1)-Ac-[D-Tyr2,Hyp3,Thr5,Nal(2)6,Arg(Me)9,Trp10]MS10 (Ac-[dY][Hyp]NT[2Nal]GL[Arg(Me)]W; ends and bridges not checked) [Compound No. 919]",1.0

# The next lines start with the values.
row,Specific Activity,Compound
1,0.7,"CNC(=N)NCCC[C@H](NC(=O)[C@H](CC1CC1)NC(=O)CNC(=O)[C@H](CC1CCC1)NC(=O)[C@@H](NC(=O)[C@H](CC(N)=O)NC(=O)[C@@H]1C[C@@H](O)CN1C(=O)[C@@H](Cc1ccc(O)cc1)NC(C)=O)[C@@H](C)O)C(=O)N[C@@H](Cc1c[nH]c2ccccc12)C(N)=O [Compound No. 945, des(1)-Ac-[D-Tyr2,Hyp3,Thr5,Ala(cBu)6,Ala(cPr)8,Arg(Me)9,Trp10]MS10] (Ac-[dY][Hyp]NT[Cba]G[Ala(cPr)][Arg(Me)]W-NH2)"
2,0.5,"CNC(=N)NCCC[C@H](NC(=O)[C@H](CC1CCC1)NC(=O)CNC(=O)[C@H](CC1CCCCC1)NC(=O)[C@@H](NC(=O)[C@H](CC(N)=O)NC(=O)[C@@H]1C[C@@H](O)CN1C(=O)[C@@H](Cc1ccc(O)cc1)NC(C)=O)[C@@H](C)O)C(=O)N[C@@H](Cc1c[nH]c2ccccc12)C(N)=O [Compound No. 946, des(1)-Ac-[D-Tyr2,Hyp3,Thr5,Cha6,Ala(cBu)8,Arg(Me)9,Trp10]MS10] (Ac-[dY][Hyp]NT[Cha]G[Cba][Arg(Me)]W-NH2)"
3,0.5,"CNC(=N)NCCC[C@H](NC(=O)[C@H](CC1CC1)NC(=O)CNC(=O)[C@H](CC1CCCCC1)NC(=O)[C@H](CO)NC(=O)[C@H](CNC(N)=O)NC(=O)[C@@H]1C[C@@H](O)CN1C(=O)[C@@H](Cc1ccc(O)cc1)NC(C)=O)C(=O)N[C@@H](Cc1c[nH]c2ccccc12)C(N)=O [Compound No. 948, des(1)-Ac-[D-Tyr2,Hyp3,Alb4,Ser5,Cha6,Ala(cPr)8,Arg(Me)9,Trp10]MS10] (Ac-[dY][Hyp][Dap(CONH2)]S[Cha]G[Ala(cPr)][Arg(Me)]W-NH2)"
4,0.7,"CNC(=N)NCCC[C@H](NC(=O)[C@H](CC1CC1)NC(=O)CNC(=O)[C@H](CC1CCCCC1)NC(=O)CNC(=O)[C@H](CNC(N)=O)NC(=O)[C@@H]1C[C@@H](O)CN1C(=O)[C@@H](Cc1ccc(O)cc1)NC(C)=O)C(=O)N[C@@H](Cc1c[nH]c2ccccc12)C(N)=O [Compound No. 949, des(1)-Ac-[D-Tyr2,Hyp3,Alb4,Gly5,Cha6,Ala(cPr)8,Arg(Me)9,Trp10]MS10] (Ac-[dY][Hyp][Dap(CONH2)]G[Cha]G[Ala(cPr)][Arg(Me)]W-NH2)"
5,0.7,"CNC(=N)NCCC[C@H](NC(=O)[C@H](CC1CC1)NC(=O)CNC(=O)[C@H](CC1CCCCC1)NC(=O)[C@H](CN)NC(=O)[C@H](CNC(N)=O)NC(=O)[C@@H]1C[C@@H](O)CN1C(=O)[C@@H](Cc1ccc(O)cc1)NC(C)=O)C(=O)N[C@@H](Cc1c[nH]c2ccccc12)C(N)=O [Compound No. 951, des(1)-Ac-[D-Tyr2,Hyp3,Alb4,Dap5,Cha6,Ala(cPr)8,Arg(Me)9,Trp10]MS10] (Ac-[dY][Hyp][Dap(CONH2)][Dap][Cha]G[Ala(cPr)][Arg(Me)]W-NH2)"
6,1.3,"CC(=O)N[C@H](Cc1ccc(O)cc1)C(=O)N1C[C@H](O)C[C@H]1C(=O)N[C@@H](CNC(N)=O)C(=O)N[C@H](C(=O)N[C@@H](CC1CCCCC1)C(=O)NCCC[C@@H](CC(C)C)C(=O)N[C@@H](CCCNC(=N)N)C(=O)N[C@@H](Cc1c[nH]c2ccccc12)C(N)=O)[C@@H](C)O [Compound No. 952, des(1)-Ac-[D-Tyr2,Hyp3,Alb4,Thr5,Cha6,Gly7Ψ(CH2CH2)Leu8,Trp10]MS10] (Ac-[dY][Hyp][Dap(CONH2)]T[Cha][X1]RW-NH2)"
7,0.5,"CNC(=N)NCCC[C@H](NC(=O)[C@H](CC1CC1)NC(=O)CNC(=O)[C@H](CC1CCCCC1)NC(=O)[C@@H](NC(=O)[C@H](CNC(N)=O)NC(=O)[C@@H]1C[C@@H](O)CN1C(=O)[C@@H](Cc1ccc(O)cc1)NC(C)=O)[C@@H](C)O)C(=O)N[C@@H](Cc1c[nH]c2ccccc12)C(N)=O [Compound No. 953, des(1)-Ac-[D-Tyr2,Hyp3,Alb4,Thr5,Cha6,Ala(cPr)8,Arg(Me)9,Trp10]MS10] (Ac-[dY][Hyp][Dap(CONH2)]T[Cha]G[Ala(cPr)][Arg(Me)]W-NH2)"
8,1.1,"CC(=O)N[C@H](Cc1ccc(O)cc1)C(=O)N1C[C@H](O)C[C@H]1C(=O)N[C@@H](CC(N)=O)C(=O)N[C@H](C(=O)N[C@@H](CC1CCCCC1)C(=O)NCCC[C@@H](CC(C)C)C(=O)N[C@@H](CCCNC(=N)N)C(=O)N[C@@H](Cc1c[nH]c2ccccc12)C(N)=O)[C@@H](C)O [Compound No. 956, des(1)-Ac-[D-Tyr2,Hyp3,Thr5,Cha6,Gly7Ψ(CH2CH2)Leu8,Trp10]MS10] (Ac-[dY][Hyp]NT[Cha][X1]RW-NH2)"
9,1.1,"CNC(=N)NCCC[C@H](NC(=O)[C@@H](CCCNC(=O)[C@H](CC1CCCCC1)NC(=O)[C@@H](NC(=O)[C@H](CNC(N)=O)NC(=O)[C@@H]1C[C@@H](O)CN1C(=O)[C@@H](Cc1ccc(O)cc1)NC(C)=O)[C@@H](C)O)CC(C)C)C(=O)N[C@@H](Cc1c[nH]c2ccccc12)C(N)=O [Compound No. 957, des(1)-Ac-[D-Tyr2,Hyp3,Alb4,Thr5,Cha6,Gly7Ψ(CH2CH2)Leu8,Arg(Me)9,Trp10]MS10] (Ac-[dY][Hyp][Dap(CONH2)]T[Cha][X1][Arg(Me)]W-NH2)"
10,0.6,"CNC(=N)NCCC[C@H](NC(=O)[C@H](CC(C)C)NC(=O)NCC[C@H](Cc1ccccc1)NC(=O)[C@@H](NC(=O)[C@H](CC(N)=O)NC(=O)[C@@H]1C[C@@H](O)CN1C(=O)[C@@H](Cc1ccc(O)cc1)NC(C)=O)[C@@H](C)O)C(=O)N[C@@H](Cc1c[nH]c2ccccc12)C(N)=O [Compound No. 968, des(1)-Ac-[D-Tyr2,Hyp3,Thr5,Phe6Ψ(CH2CH2)AzaGly7,Arg(Me)9,Trp10)MS10]"
11,2.9,"des(1)-Ac-[D-Tyr2,Hyp3,Thr5,Gly7Ψ(CH2NH)Leu8,Arg(Me)9,Trp10]MS10 (Ac-[dY][Hyp]NTFGL[Arg(Me)]W-NH2; also: -CONH- between Gly and Leu replaced by -CH2NH-) [Compound No. 854]"

# From patent publication US7786083B2, “Metastin derivatives and use thereof” (Takeda Pharmaceutical Company Limited, priority 2006, dated 2010)
